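Cultured in 96-well plates, cells were exposed to test compound for 48 hours across five concentrations. GI50: concentration for 50% inhibition of growth.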 The source made the active and inactive calls. Cut-off read from the data, not from the text of the source: active = GI50 up to about 1.1 µM and inactive = higher.
Assays:
Assay in all cases: growth of human tumour cells (NCI), 48 h
Hs-578T = tested on: Hs-578T
DMS-114 = tested on: DMS-114
BT-549 = tested on: BT-549
MDA-N = tested on: MDA-N
OVCAR-8 = tested on: OVCAR-8
HOP-62 = tested on: HOP-62
UACC-257 = tested on: UACC-257
PC-3 = tested on: PC-3
SF-539 = tested on: SF-539
SK-OV-3 = tested on: SK-OV-3
NCI-H522 = tested on: NCI-H522
LOX IMVI = tested on: LOX IMVI
SNB-19 = tested on: SNB-19
OVCAR-3 = tested on: OVCAR-3
Malme-3M = tested on: Malme-3M
U-251 = tested on: U-251
NCI/ADR-RES = tested on: NCI/ADR-RES
HOP-92 = tested on: HOP-92
RPMI-8226 = tested on: RPMI-8226
K562 = tested on: K562

Measured: GI50

Nc1ncnc2c1nc(Cl)n2[C@@H]1O[C@@H]2COP(=O)(O)O[C@H]2[C@H]1O [TOCLADESINE]
inactive: Hs-578T 28.7 µM | DMS-114 26.7 µM | BT-549 5.69 µM | MDA-N 10.9 µM | OVCAR-8 5.42 µM | HOP-62 19.5 µM | UACC-257 42.6 µM | PC-3 8.3 µM | SF-539 49 µM | SK-OV-3 10.6 µM | NCI-H522 27.1 µM | LOX IMVI 2.7 µM | SNB-19 122 µM | OVCAR-3 44.9 µM | Malme-3M 152 µM | U-251 67.8 µM | NCI/ADR-RES 6.67 µM | HOP-92 12.2 µM | RPMI-8226 6.47 µM | K562 2.82 µM

Reference: ChEMBL document CHEMBL1201862, “PubChem BioAssay data set” (2004)
